Source: PMC8835363, “Arachidin-1, a Prenylated Stilbenoid from Peanut, Induces Apoptosis in Triple-Negative Breast Cancer Cells” (International Journal of Molecular Sciences, 2022)

What was measured:
Assay type in all cases: cell-based, human
[1] = test system: caspase-8, 9, PARP, and survivin proteins in MDA-MB-436 cells; assay: Western blot of caspase-8, caspase-9, PARP and survivin; settings: 0.1 and 1 µM, 24 h
Method: (§1) MDA-MB-231 and MDA-MB-436 cells (10^7 and 5 × 10^6 cells/3 mL medium, respectively) were seeded in a 6-well cell culture plate. After 24 h, the cells were treated with A-1 (0.1 µM and 1 µM) for 24 h. Cells treated with 0.01% DMSO (ATCC; Manassas, VA, USA) were included as a control. Protein extracts were prepared using RIPA Lysis and Extraction Buffer plus Halt™ Protease Inhibitor Cocktail (Thermo Fisher Scientific; Waltham, MA, USA). The protein concentration was measured using the Bradford assay (Thermo Fisher Scientific; Waltham, MA, USA). Protein extracts (60 µg) with 5 µL of 2X Novex™ Tris-Glycine SDS Sample Buffer (Thermo Fisher Scientific; Waltham, MA, USA) and 1% dithiothreitol (DTT; Thermo Fisher Scientific; Waltham, MA, USA) were denatured and separated by electrophoresis using SDS-PAGE in 10% Tris-Glycine pre-cast gel (Novex™ WedgeWell™, Thermo Fisher Scientific; Waltham, MA, USA). The gel was run in 1X Novex™ Tris-Glycine SDS running buffer (Thermo Fisher Scientific; Waltham, MA, USA) at a constant 125 voltage for 90 min. The proteins were transferred into Trans-Blot Turbo Mini 0.2 µm PVDF membranes (Bio-Rad Laboratories; Hercules, CA, USA) using the Trans Blot Turbo System (Bio-Rad Laboratories; Hercules, CA, USA) at 1.3 amp and up to 25 volts for 7 min. After the membranes dried completely, they were incubated in 1X Tris Buffered Saline (TBS; Bio-Rad; Hercules, CA, USA) for 5 min at room temperature. Then, the membranes were blocked with 5% non-fat dry milk in 1X TBS containing 1% Tween 20 (TBST; Bio-Rad; Hercules, CA, USA) for 1 h at room temperature. The membranes were incubated with specific primary antibodies at 4 °C overnight. The primary antibodies and dilutions included rabbit anti-caspase-8 (D35G2) mAb (1:500; Cell Signaling Technology; Danvers, MA, USA), rabbit anti-PARP mAb (1:500; Cell Signaling Technology; Danvers, MA, USA), rabbit anti-human survivin polyclonal antibody (0.5 µg/mL; R&D Systems; Minneapolis, MN, USA), mouse anti-human caspase-9 mAb (1 µg/mL; R&D Systems; Minneapolis, MN, USA), mouse anti-vinculin antibody (2 µg/mL; R&D Systems; Minneapolis, MN, USA), and mouse anti-human GAPDH antibody (0.05 µg/mL; R&D Systems; Minneapolis, MN, USA). Afterwards, the membranes were incubated with HRP-conjugated goat anti-rabbit IgG secondary antibody (1:2000; Cell Signaling Technology; Danvers, MA, USA) and HRP-conjugated AffiniPure goat anti-mouse IgG secondary antibody (1:50,000; Jackson Immunoresearch Laboratories; West Grove, PA, USA) for 1 h at room temperature. The membranes were washed with 1X TBST and then incubated with SuperSignal™ West Pico PLUS Chemiluminescent Substrate (Thermo Fisher Scientific; Waltham, MA, USA). The membranes were scanned and analyzed using the Li-COR Odyssey® Fc Imaging System (LI-COR Biosciences; Lincoln, NE, USA).

[2] = test system: caspase-8, 9, PARP, and survivin proteins in MDA-MB-231 cells; assay: as above; settings: 0.1 and 1 µM, 24 h
Method: as §1

MDA-MB-231 cells = assay: RealTime-Glo MT cell viability (cytotoxicity) assay; settings: for IC50: Homo sapiens
Method: (§2) The cytotoxicity of RES, A-1, and A-3 was measured using the RealTime-Glo^TM MT Cell Viability Assay (Promega, Madison, WI, USA). The cells (10,000 cells/well) were seeded into 96-well plates. […] Cells with 0.1% DMSO (ATCC; Manassas, VA, USA) were included as a control. Luminescence was measured every 12 h for 72 total hours in a Cytation^TM 5 (BioTek, Winooski, VT, USA) plate reader. All experiments were performed in triplicates.

MDA-MB-436 cells = assay: as above; settings: for IC50: Homo sapiens
Method: as §2

[3] = test system: caspase-3/7 activity in MDA-MB-436 cells; assay: Apo-ONE Homogenous Caspase-3/7 Assay; settings: 0.1, 1, 10 µM, 48 h
Method: (§3) The Apo-ONE® Homogenous Caspase-3/7 Assay (Promega, Madison, WI, USA) was used for measuring caspase-3/7 activity. Cells (10,000 cells/well) were seeded in 96-well plates. After 24 h, the cells were treated with A-1, A-3, and RES, and incubated for an additional 48 h at 37 °C, with a humidified atmosphere of 5% CO2 (however, MDA-MB-436 cells were incubated in 0% CO2). Control groups were cells treated with 0.01% DMSO (ATCC; Manassas, VA, USA). According to the manufacturer, after 48 h of treatment, the caspase reagent was added to the cells and the plates were incubated at room temperature in the dark for 1 h. Then, fluorescence was measured every hour for a total of 4 h using the Cytation^TM 5 (BioTek; Winooski, VT, USA) plate reader at an excitation wavelength of 485 ± 20 nm and emission of 530 ± 25 nm.

[4] = test system: caspase-3/7 activity in MDA-MB-231 cells; assay: Apo-ONE Homogenous Caspase-3/7 Assay; settings: 0.1, 1, 10 µM, 48 h
Method: as §3

For CC(C)/C=C/c1c(O)cc(/C=C/c2ccc(O)c(O)c2)cc1O [A-1, arachidin-1], which “cleaved PARP level” value [1] is on record?
Its value is “significantly increased”.

What about the “cleaved caspase-9 level” value [1] of the same molecule?
The value was “significantly increased”.

What about the “full-length caspase-8 level” value [1] of the same molecule?
Its value is “no significant change”.

What about the survivin expression [1] of the same molecule?
The survivin expression was “downregulated”.

And the “cleaved PARP level” value [2]?
Its value is “only slightly increased and not statistically significant”.

What about the “cleaved caspase-9 level” value [2] of the same molecule?
Its value is “only significantly increased in A-1 1 µM”.

And the “full-length PARP protein level” value [2]?
The value was “significantly decreased levels”.

What about the “full-length caspase-8 level” value [2] of the same molecule?
Its value is “no significant change”.

And the survivin expression [2]?
The survivin expression was “downregulated”.

And the IC50 (MDA-MB-231 cells; MDA-MB-231, 24 h, MDA-MB-231, 24 h, in Figure 2 panels)?
Its IC50 is 1840 nM.

And the IC50 (MDA-MB-231 cells; MDA-MB-231, 24 h, MDA-MB-231, 24 h of treatment)?
Its IC50 is 2680 nM.

What about the IC50 (MDA-MB-231 cells; MDA-MB-231, 48 h, MDA-MB-231, 48 h, in Figure 2 panels) of the same molecule?
Its IC50 is 1420 nM.

And the IC50 (MDA-MB-231 cells; MDA-MB-231, 48 h, MDA-MB-231, 48 h of treatment)?
Its IC50 is 7820 nM.

And the IC50 (MDA-MB-231 cells; MDA-MB-231, 72 h, MDA-MB-231, 72 h, in Figure 2 panels)?
Its IC50 is 2510 nM.

And the IC50 (MDA-MB-231 cells; MDA-MB-231, 72 h, MDA-MB-231, 72 h of treatment)?
The IC50 was 2510 nM.

And the IC50 (MDA-MB-231 cells; MDA-MB-231, MDA-MB-231, all treatment time points)?
The IC50 was roughly 2000 nM.

And the “antiproliferative effect (cell viability vs control)” value (MDA-MB-231 cells; MDA-MB-231, 1 µM, 24, 48, 72 h)?
The value was “cell proliferation reductions”.

What about the “growth inhibition at low concentrations” value (MDA-MB-231 cells; MDA-MB-231, 0.01-10 µM, 72 h) of the same molecule?
The value was “higher inhibitory growth effects at lower micromolar concentrations when compared to RES”.

What about the “fold lower IC50 of A-1 than RES” value (MDA-MB-231 cells; MDA-MB-231, 24 h) of the same molecule?
The value was “six-fold”.

And the IC50 (MDA-MB-436 cells; MDA-MB-436, 24 h, MDA-MB-436, 24 h)?
Its IC50 is 12000 nM.

And the IC50 (MDA-MB-436 cells; MDA-MB-436, 24 h, MDA-MB-436, 24 h, in Figure 2 panels)?
Its IC50 is 1620 nM.

What about the IC50 (MDA-MB-436 cells; MDA-MB-436, 48 h, MDA-MB-436, 48 h) of the same molecule?
Its IC50 is 6200 nM.

And the IC50 (MDA-MB-436 cells; MDA-MB-436, 48 h, MDA-MB-436, 48 h, in Figure 2 panels)?
Its IC50 is 2740 nM.

And the IC50 (MDA-MB-436 cells; MDA-MB-436, 72 h, MDA-MB-436, 72 h)?
The IC50 was 2090 nM.

What about the IC50 (MDA-MB-436 cells; MDA-MB-436, 72 h, MDA-MB-436, 72 h, in Figure 2 panels) of the same molecule?
The IC50 was 2090 nM.

And the IC50 (MDA-MB-436 cells; MDA-MB-436, MDA-MB-436, all treatment time points)?
The IC50 was roughly 2000 nM.

What about the “antiproliferative effect (cell viability vs control)” value (MDA-MB-436 cells; MDA-MB-436, 1 µM, 24, 48, 72 h) of the same molecule?
Its value is “cell proliferation reductions”.

What about the “growth inhibition at low concentrations” value (MDA-MB-436 cells; MDA-MB-436, 0.01-10 µM, 72 h) of the same molecule?
The value was “higher inhibitory growth effects at lower micromolar concentrations when compared to RES”.

What about the “fold lower IC50 of A-1 than A-3” value (MDA-MB-436 cells; MDA-MB-436, 24 h) of the same molecule?
The value was “nine-fold”.

What about the “fold lower IC50 of A-1 than RES” value (MDA-MB-436 cells; MDA-MB-436, 24 h) of the same molecule?
Its value is “eight-fold”.

What about the “caspase-3/7 activity vs control” value [3] of the same molecule?
The value was “significant increase of dose-dependent caspase-3/7 activities”.

What about the “caspase-3/7 activity vs control” value [4] of the same molecule?
Its value is “significant increase of dose-dependent caspase-3/7 activities”.
